Test results reported in patent publication US5364615A (priority 1992, dated 1994).
Values joined by “and” are separate entries in the source; they are usually repeats but may differ in a detail not shown here. Equal entries are not always repeated. “Also recorded” adds a separate entry of the source. Where two headings read alike, the source gives them in different places.

Key:
clinical = conditions: human, serum, inhaled or intranasal, 300 mg
Protocol: Adult patients having or suspected of having AIDS, and who were hospitalized for a fiberoptic bronchoscopy to evaluate diffuse infiltrates on chest radiographs, were studied. The patients were divided into two groups. […] Two patients had received one dose and the other three doses.
Eighteen to 24 hours later both groups underwent fiberoptic bronchoscopy. After inspection of the airways, 3-5 aliquots (20 mL) of normal saline were injected and aspirated from the right middle lobe until at least 40 mL was recovered: C. […] Lavage fluid was centrifuged at 1,000×g for 10 min at 10° C. […] Briefly, proteins were precipitated with acetonitrile containing hexamidine as an internal standard. […] The lower limit of sensitivity of the assay was 2-3 ng/mL. Two sample t-test was used to compare groups: p values of <0.05 were regarded as significant.

[1] = in vivo
[2] = format: in vivo, human
Text: Five patients who developed PCP within 28 days were not evaluated. One hundred (66%) of the patients were concurrently receiving AZT, and 42 (28%) had experienced one prior episode of PCP.

Pneumocystis carinii [3] = assay: Randomized clinical trial of PCP prophylaxis (Example 8); format: in vivo, human
[4] = in vivo; remark: listed apart in the source
Side effects (Example 6) = format: in vivo, human
[5] = Pentamidine concentrations in lavage fluid and plasma, HPLC (Example 1); format: in vivo, human
Protocol: For six inhalation patients (1, 4, 6, 7, 15, and 16) and five i.v. patients (2, 3, 5, 8, and 22), plasma samples were obtained at the completion of therapy and at 0.17, 0.5, 1, 1.5, 2, 2.5, 3, 4, 5, 6, 8, 10, 12, and 18 hours following initiation of therapy. For patients 9-14 and 17-21, trough and peak plasma samples were collected for the first three days, then weekly during therapy. Trough and peak samples were obtained on days 2, 3, 4, 5, 7, 11, and 13 for patient 2, days 2, 3, 4, 5, 7, and 12 for patient 3, days 2, 3, 4, 5, 13 and 18 for patient 5, and days 2, 3, 4, 5, and 11 for patient 8.

[6] = Adverse reactions and toxicity during PCP therapy (Example 3); conditions: for FEV1/FVC ratio: mean±1 SD
Pneumocystis carinii [7] = assay: Post-exposure prophylaxis of PCP (Example 5); format: in vivo, human; conditions: for Percent Alive & Free of Relapse: 300 mg once per month
Text: Within 30 days of initiation of prophylaxis, ten patients were omitted due to treatment (9) or relapse (1). Of the 93 patients, 48 had had at least one previous episode of PCP. Two-thirds of the patients were taking AZT at the onset and throughout the duration of the post-exposure prophylaxis. The median and maximum duration of treatment at the time of analysis was 3.1 and 5.2 months.

[8] = all strata, eligible, PCP within 60 days, 30 mg
[9] = all strata, eligible, PCP within 60 days, 150 mg
[10] = all strata, eligible, PCP within 60 days, 300 mg, p .004 (30 vs 300 mg)
[11] = all strata, eligible, confirmed PCP within 60 days, 30 mg
[12] = all strata, eligible, confirmed PCP within 60 days, 150 mg
[13] = all strata, eligible, confirmed PCP within 60 days, 300 mg, p .0008 (30 vs 300 mg)
[14] = all strata, intention to treat, all PCP, 30 mg
[15] = all strata, intention to treat, all PCP, 150 mg
[16] = all strata, intention to treat, all PCP, 300 mg, p .02 (30 vs 300 mg)
[17] = prior PCP strata, eligible, PCP within 60 days, 30 mg
[18] = prior PCP strata, eligible, PCP within 60 days, 150 mg
[19] = prior PCP strata, eligible, PCP within 60 days, 300 mg, p .006 (30 vs 300 mg)
[20] = prior PCP strata, eligible, confirmed PCP within 60 days, 30 mg
[21] = prior PCP strata, eligible, confirmed PCP within 60 days, 150 mg
[22] = prior PCP strata, eligible, confirmed PCP within 60 days, 300 mg, p .002 (30 vs 300 mg)
[23] = prior PCP strata, intention to treat, all PCP, 30 mg
[24] = prior PCP strata, intention to treat, all PCP, 150 mg
[25] = prior PCP strata, intention to treat, all PCP, 300 mg, p .02 (30 vs 300 mg)
[26] = group b, 150 mg every two weeks
[27] = group c, 300 mg every four weeks

## N=C(N)c1ccc(OCCCCCOc2ccc(C(=N)N)cc2)cc1 [pentamidine, p,p'-(pentamethylenedioxy)dibenzamidine]
clinical
  concentration at 0.5 h: 13 ng/mL
[1]
  adverse systemic reactions (renal, liver, hematologic, hypoglycemia, hypotension): No adverse systemic reactions
  coughing with larger particles: most subjects began coughing within a few breaths
[2]; 3 of 146
  deaths associated with PCP: 2%
[2]; 9 of 146
  deaths due to other causes: 6%
[2]; twelve of 146 evaluable
  patients died: 8%
Pneumocystis carinii [3]; 30 mg every two weeks
  Completed without Endpoint: 26
  Died, Due to PCP: 5
  Died, Not due to PCP: 51
  Extrapulmonary Pneumocystis: 0
  PCP, Confirmed: 32
  PCP, Unconfirmed: 9
Pneumocystis carinii [3]; 150 mg every two weeks
  Completed without Endpoint: 38
  Died, Due to PCP: 6
  Died, Not due to PCP: 47
  Extrapulmonary Pneumocystis: 1
  PCP, Confirmed: 28
  PCP, Unconfirmed: 4
Pneumocystis carinii [3]; 300 mg every four weeks
  Completed without Endpoint: 42
  Died, Due to PCP: 5
  Died, Not due to PCP: 46
  Extrapulmonary Pneumocystis: 0
  PCP, Confirmed: 16
  PCP, Unconfirmed: 12
Pneumocystis carinii [3]; 16 of 101 PCP episodes
  case fatality rate from first acute PCP episode: 15.8%
Pneumocystis carinii [3]; 19 of 160
  share of all deaths due to PCP: 11.9%
Pneumocystis carinii [3]; 30, 150, 300 mg
  all cause mortality between treatment arms: did not significantly differ between the three treatment arms
Pneumocystis carinii [3]; Kaplan-Meier, 300 mg every 4 weeks vs 30 mg every 2 weeks, 150 mg vs 30 mg
  time to PCP occurrence, dose comparison: 300 mg of aerosolized pentamidine given every 4 weeks was consistently superior to 30 mg of aerosolized pentamidine given every 2 weeks and The 150 mg arm was superior to the 30 mg arm but less so than the 300 mg arm
Pneumocystis carinii [3]; Kaposi's sarcoma stratum
  all cause mortality: 36%
Pneumocystis carinii [3]; all doses
  deaths due to PCP: Nineteen deaths occurred due to PCP
Pneumocystis carinii [3]; all doses, 408 participants
  deaths: 160
Pneumocystis carinii [3]; all doses, KS stratum
  PCP episodes: 8
Pneumocystis carinii [3]; all doses, Other HIV stratum
  PCP episodes: 15
Pneumocystis carinii [3]; all doses, total and prior PCP stratum
  PCP episodes: One hundred-one PCP episodes; also recorded: Seventy-eight occurred in the prior PCP stratum
Pneumocystis carinii [3]; all strata, confirmed PCP on study drug, 30 vs 300
  Relative Hazard of PCP: Cox regression: 3.9 and 3.86
Pneumocystis carinii [3]; all strata, confirmed PCP on study drug, 30 vs. 150
  Relative Hazard of PCP: Cox regression: 1.7 and 1.71
Pneumocystis carinii [3]; [8]
  No PCP (participants): 89
  PCP (participants): 28
Pneumocystis carinii [3]; [9]
  No PCP (participants): 102
  PCP (participants): 18
Pneumocystis carinii [3]; [10]
  No PCP (participants): 113
  PCP (participants): 16
Pneumocystis carinii [3]; [11]
  No PCP (participants): 95
  PCP (participants): 22
Pneumocystis carinii [3]; [12]
  No PCP (participants): 104
  PCP (participants): 16
Pneumocystis carinii [3]; [13]
  No PCP (participants): 121
  PCP (participants): 8
Pneumocystis carinii [3]; [14]
  No PCP (participants): 94
  PCP (participants): 41
Pneumocystis carinii [3]; [15]
  No PCP (participants): 102
  PCP (participants): 32
Pneumocystis carinii [3]; [16]
  No PCP (participants): 111
  PCP (participants): 28
Pneumocystis carinii [3]; all strata, intention to treat, 30 vs 300
  Relative Hazard of PCP: Cox regression: 1.78
Pneumocystis carinii [3]; all strata, intention to treat, 30 vs. 150
  Relative Hazard of PCP: Cox regression: 1.21
Pneumocystis carinii [3]; initial CD4 counts greater than 200, no prior PCP, two of 39
  developed PCP: 5.1%
Pneumocystis carinii [3]; initial CD4 counts less than 200, no prior PCP, 12 of 89
  developed PCP: 13%
Pneumocystis carinii [3]; other HIV stratum
  all cause mortality: 13%
Pneumocystis carinii [3]; prior PCP strata, confirmed PCP on study drug, 30 vs 300
  Relative Hazard of PCP: Cox regression: 4.57
Pneumocystis carinii [3]; prior PCP strata, confirmed PCP on study drug, 30 vs. 150
  Relative Hazard of PCP: Cox regression: 2.10
Pneumocystis carinii [3]; [17]
  No PCP (participants): 42
  PCP (participants): 25
Pneumocystis carinii [3]; [18]
  No PCP (participants): 51
  PCP (participants): 16
Pneumocystis carinii [3]; [19]
  No PCP (participants): 60
  PCP (participants): 14
Pneumocystis carinii [3]; [20]
  No PCP (participants): 47
  PCP (participants): 20
Pneumocystis carinii [3]; [21]
  No PCP (participants): 53
  PCP (participants): 14
Pneumocystis carinii [3]; [22]
  No PCP (participants): 66
  PCP (participants): 8
Pneumocystis carinii [3]; [23]
  No PCP (participants): 46
  PCP (participants): 33
Pneumocystis carinii [3]; [24]
  No PCP (participants): 54
  PCP (participants): 24
Pneumocystis carinii [3]; [25]
  No PCP (participants): 59
  PCP (participants): 21
Pneumocystis carinii [3]; prior PCP strata, intention to treat, 30 vs 300
  Relative Hazard of PCP: Cox regression: 2.11
Pneumocystis carinii [3]; prior PCP strata, intention to treat, 30 vs. 150
  Relative Hazard of PCP: Cox regression: 1.40
Pneumocystis carinii [3]; prior PCP stratum
  all cause mortality: 53%
Pneumocystis carinii [3]; start within 3 months of prior PCP vs later, Cox model
  hazard of PCP by start of therapy: less than half the hazard of PCP
Pneumocystis carinii [3]; starting prophylaxis within 3 months of prior PCP
  time to PCP relapse, median: 240 days
Pneumocystis carinii [3]; starting with a longer interval since prior episode
  time to PCP relapse, median: 143 days
[4]
  hypotension or dysglycemia: no episodes of hypotension or dysglycemia
  inhalation-associated cough: Eight of thirteen patients (four of whom also experienced bronchospasm) had mild inhalation-associated cough
  reversible bronchospasm: occurred in five patients
Side effects (Example 6); all groups
  withdrawals due to toxicity: no withdrawals due to toxicity
Side effects (Example 6); group a, 30 mg every two weeks
  Cough: 25%
  Metallic Taste: 11%
  Wheezing: 10%
Side effects (Example 6); [26]
  Cough: 34%
  Metallic Taste: 16%
  Wheezing: 14%
Side effects (Example 6); [27]
  Cough: 34%
  Metallic Taste: 20%
  Wheezing: 14%
[5]; human, bronchoalveolar lavage fluid, inhaled or intranasal, inhalation, patient 4, day 12, read-out: mean concentration in repeat lavage
  concentration at 288 h: 178 ± 28 ng/mL
[5]; human, bronchoalveolar lavage fluid, inhaled or intranasal, inhalation, patient 4, day 69 following completion of therapy, read-out: mean concentration in repeat lavage
  concentration at 1656 h: 5.61 ± 0.78 ng/mL
[5]; human, bronchoalveolar lavage fluid, inhaled or intranasal, inhalation, patient 6, day 15, read-out: mean concentration in repeat lavage
  concentration at 360 h: 63 ± 22 ng/mL
[5]; human, bronchoalveolar lavage fluid, inhaled or intranasal, inhalation, patient 12, day 15, read-out: mean concentration in repeat lavage
  concentration at 360 h: 45.7 ± 0.9 ng/mL
[5]; human, bronchoalveolar lavage fluid, inhaled or intranasal, inhalation, patient 14, day 47, read-out: mean concentration in repeat lavage
  concentration at 1128 h: 3 ± 0.5 ng/mL
[5]; human, bronchoalveolar lavage fluid, iv, patient 2, day 2
  concentration at 48 h: 10.9 ± 2.9 ng/mL
[5]; human, bronchoalveolar lavage fluid, iv, patient 5, day 6
  concentration at 144 h: 3.4 ± 0.2 ng/mL
[5]; human, plasma, iv, read-out: maximum plasma concentration during remainder of therapy, mean
  Cmax: 497 ± 451 ng/mL
[5]; inhalation
  plasma samples without detectable drug: approximately two-thirds of the plasma samples contained no detectable drug
[5]; inhalation patients higher than iv-treated
  lavage fluid concentration, inhalation vs iv: approximately 10 fold
[5]; inhalation, highest concentration during remainder of therapy, per patient
  Plasma max during treatment: 6.1 ng/mL and 21.8 ng/mL and 7.8 ng/mL and 5.0 ng/mL and 13.0 ng/mL and 45.4 ng/mL and 12.3 ng/mL and 6.9 ng/mL and 29.5 ng/mL and 11.5 ng/mL and 79.2 ng/mL and 23.2 ng/mL
[5]; inhalation, mean ± SD in (N) consecutive lavages, per patient
  Mean concentration in lavage fluid: 55.3 ± 17.1 ng/mL and 28.6 ± 10 ng/mL and 66.8 ± 16 ng/mL and 30.6 ± 27.5 ng/mL and 16.8 ± 7.3 ng/mL and 49.1 ± 22.5 ng/mL and 149.7 ± 87.2 ng/mL and 92.4 ± 53.9 ng/mL
[5]; inhalation, peak during inhalation (patients 1, 4, 6, 7, 15, 16) or at end of inhalation (10-14, 17)
  Plasma conc. on Day 1: 0.0 ng/mL
[5]; inhalation, plasma, per patient
  Time to max conc.: 5 days and 2 days and 1 days and 3 days and 14 days and 8 days
[5]; intravenous, at completion of first infusion
  mean plasma concentration: 179 ± 185 ng/mL
[6]; end of therapy
  FEV1/FVC ratio: 79.9±15.8%
[6]; first 4 patients
  FEV1/FVC ratio, single treatment: no different before and after a single treatment
[6]; in vivo
  bronchospasm / airway obstruction: Neither clinical nor spirometric evidence of airway obstruction occurred; also recorded: Clinical bronchospasm was not seen
[6]; initial testing
  FEV1/FVC ratio: 76.1±12.2%
[6]; n = 15
  Toxicity Req Change of Therapy, %: 0%
Pneumocystis carinii [7]; 300 mg by inhalation once monthly, based on historical controls
  reduction in the incidence of PCP: 5 fold
Pneumocystis carinii [7]; 0.0 months
  Percent Alive & Free of Relapse: 100.0%
Pneumocystis carinii [7]; 2.3 months
  Percent Alive & Free of Relapse: 98.57%
Pneumocystis carinii [7]; 2.5 months
  Percent Alive & Free of Relapse: 97.12%
Pneumocystis carinii [7]; 2.9 months
  Percent Alive & Free of Relapse: 95.53%
Pneumocystis carinii [7]; 3.0 months
  Percent Alive & Free of Relapse: 93.85%
Pneumocystis carinii [7]; 3.1 months
  Percent Alive & Free of Relapse: 92.08%
Pneumocystis carinii [7]; 3.7 months
  Percent Alive & Free of Relapse: 89.78%
Pneumocystis carinii [7]; 5.2 months
  Percent Alive & Free of Relapse: 79.81%
Pneumocystis carinii [7]; single prior episode of PCP
  delay of relapse: at least 5 months
Pneumocystis carinii [7]; single prior episode, vs 10 based on 132 historical controls, p<0.01
  observed PCP cases: 3
